These results are taken from ChEMBL document CHEMBL4630908 (2021).

Activity calls are given as the source filed them. No cut-off for these calls is given here.

Assay [1] addresses 5-hydroxytryptamine receptor 1D (Homo sapiens, UniProt P28221). As to the kind of experiment: GPCRScan assay: inhibition of 5-HT1D. Further details: radioligand conc. used [nm] 1.0 – 2.0, parental cells HEKT.
The target of assay [2] is T1, Bromodomain-containing protein 2 (Homo sapiens, UniProt P25440). Kind of assay: BET mutant TR-FRET assay (BRD2 BD1). On the technique in general: In TR-FRET formats the signal depends on donor and acceptor labels being close together.
Target sequence in this assay (P25440 whole entry, looked up, change not shown): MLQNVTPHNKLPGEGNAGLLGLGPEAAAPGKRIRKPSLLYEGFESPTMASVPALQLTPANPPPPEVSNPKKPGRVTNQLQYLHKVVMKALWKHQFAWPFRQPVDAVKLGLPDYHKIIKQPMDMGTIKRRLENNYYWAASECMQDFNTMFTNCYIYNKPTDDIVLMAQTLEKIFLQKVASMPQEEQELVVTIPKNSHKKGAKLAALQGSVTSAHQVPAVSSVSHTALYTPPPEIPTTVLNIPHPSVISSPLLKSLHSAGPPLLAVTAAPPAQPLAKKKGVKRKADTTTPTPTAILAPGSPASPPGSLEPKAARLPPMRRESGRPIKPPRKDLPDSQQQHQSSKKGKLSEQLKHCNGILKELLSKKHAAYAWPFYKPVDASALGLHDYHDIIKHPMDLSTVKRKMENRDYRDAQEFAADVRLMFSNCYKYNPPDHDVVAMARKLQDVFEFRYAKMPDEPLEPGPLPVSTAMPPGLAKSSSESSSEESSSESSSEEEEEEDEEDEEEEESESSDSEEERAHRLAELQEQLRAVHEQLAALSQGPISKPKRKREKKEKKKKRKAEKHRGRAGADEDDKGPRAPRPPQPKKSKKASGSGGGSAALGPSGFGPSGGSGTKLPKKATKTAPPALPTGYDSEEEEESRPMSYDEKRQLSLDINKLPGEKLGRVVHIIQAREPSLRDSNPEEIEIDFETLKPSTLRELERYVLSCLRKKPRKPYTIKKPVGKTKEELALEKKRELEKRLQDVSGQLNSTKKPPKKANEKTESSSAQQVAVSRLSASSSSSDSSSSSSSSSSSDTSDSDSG
Assay [3] deals with T2, Bromodomain testis-specific protein (Homo sapiens, UniProt Q58F21). Kind of assay: BET mutant TR-FRET assay (BRDT BD1).
For assay [4], the target named is T1, Bromodomain-containing protein 2. As to the kind of experiment: BRD2 BD1 Bromoscan (DiscoverX).
Target sequence in this assay (P25440 whole entry): as the sequence (P25440 whole entry, looked up, change not shown) above
The target in assay [5] is T3, Bromodomain-containing protein 3 (Homo sapiens, UniProt Q15059). As to the kind of experiment: BRD3 BD2 Bromoscan (DiscoverX).
T3 sequence (Q15059 whole entry): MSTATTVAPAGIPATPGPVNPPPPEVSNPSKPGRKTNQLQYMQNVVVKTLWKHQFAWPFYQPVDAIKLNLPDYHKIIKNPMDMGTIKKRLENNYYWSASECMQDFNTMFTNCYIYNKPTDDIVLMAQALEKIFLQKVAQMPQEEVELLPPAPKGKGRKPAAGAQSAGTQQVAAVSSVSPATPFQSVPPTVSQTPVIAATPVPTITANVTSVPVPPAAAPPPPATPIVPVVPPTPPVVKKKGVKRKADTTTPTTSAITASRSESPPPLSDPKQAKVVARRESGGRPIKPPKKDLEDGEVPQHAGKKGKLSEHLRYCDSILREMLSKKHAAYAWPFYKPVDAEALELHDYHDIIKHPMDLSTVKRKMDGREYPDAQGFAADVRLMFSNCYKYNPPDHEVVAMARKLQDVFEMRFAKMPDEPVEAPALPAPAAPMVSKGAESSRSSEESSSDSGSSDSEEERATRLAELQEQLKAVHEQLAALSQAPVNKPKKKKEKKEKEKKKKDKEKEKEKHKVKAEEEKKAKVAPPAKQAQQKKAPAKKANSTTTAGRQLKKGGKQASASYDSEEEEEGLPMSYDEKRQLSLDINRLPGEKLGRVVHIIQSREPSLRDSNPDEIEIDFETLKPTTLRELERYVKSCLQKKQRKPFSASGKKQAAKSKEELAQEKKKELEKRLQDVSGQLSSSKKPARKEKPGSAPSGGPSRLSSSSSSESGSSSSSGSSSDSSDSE
The target in assay [6] is T1, Bromodomain-containing protein 2. As to the kind of experiment: BRD2(2) DiscoverX BROMOscan.
Target sequence in this assay (P25440 whole entry): as the sequence (P25440 whole entry, looked up, change not shown) above
The target in assay [7] is T3, Bromodomain-containing protein 3. As to the kind of experiment: BRD3(2) DiscoverX BROMOscan.
In assay [8] the target is T2, Bromodomain testis-specific protein. As to the kind of experiment: BRDT(2) DiscoverX BROMOscan.
Assay [9] deals with CREB-binding protein (Homo sapiens, UniProt Q92793). Kind of assay: CREBBP DiscoverX BROMOscan.
The target in assay [10] is Histone acetyltransferase p300 (Homo sapiens, UniProt Q09472). As to the kind of experiment: EP300 DiscoverX BROMOscan.
Assay [11] deals with Transcription initiation factor TFIID subunit 1 (Homo sapiens, UniProt P21675). As to the kind of experiment: TAF1(2) DiscoverX BROMOscan.
Assay [12] addresses Transcription initiation factor TFIID subunit 1-like (Homo sapiens, UniProt Q8IZX4). Kind of assay: TAF1L(2) DiscoverX BROMOscan.
For assay [13], the target named is 5-hydroxytryptamine receptor 2A (Homo sapiens, UniProt P28223). Kind of assay: (§1) Cross screening panel. The conditions noted are these: filed as antagonist.
Assay [14] deals with 5-hydroxytryptamine receptor 2C (Homo sapiens) (UniProt P28335). The assay is described as §1. The conditions noted are these: filed as antagonist.
Sequence of 5-hydroxytryptamine receptor 2C (Homo sapiens) (P28335 whole entry): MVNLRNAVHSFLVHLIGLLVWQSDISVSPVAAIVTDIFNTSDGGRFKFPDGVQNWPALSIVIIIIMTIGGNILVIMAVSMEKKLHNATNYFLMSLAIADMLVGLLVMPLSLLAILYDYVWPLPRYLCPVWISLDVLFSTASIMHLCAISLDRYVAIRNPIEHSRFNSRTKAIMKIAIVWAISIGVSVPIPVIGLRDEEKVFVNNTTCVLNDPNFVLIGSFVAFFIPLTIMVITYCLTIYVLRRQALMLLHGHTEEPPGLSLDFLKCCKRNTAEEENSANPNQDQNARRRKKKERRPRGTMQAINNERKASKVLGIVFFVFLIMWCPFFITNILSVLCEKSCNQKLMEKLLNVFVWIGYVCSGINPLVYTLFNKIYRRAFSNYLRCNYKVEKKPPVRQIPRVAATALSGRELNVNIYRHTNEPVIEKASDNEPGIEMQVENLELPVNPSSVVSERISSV
In assay [15] the target is GABA-A receptor; anion channel. Described as §1. The class given is protein-complex assay.
The target of assay [16] is 5-hydroxytryptamine receptor 5A (Homo sapiens) (UniProt P47898). The note with it: Compound concentration 10.0 uM.
Sequence of 5-hydroxytryptamine receptor 5A (Homo sapiens) (P47898 whole entry): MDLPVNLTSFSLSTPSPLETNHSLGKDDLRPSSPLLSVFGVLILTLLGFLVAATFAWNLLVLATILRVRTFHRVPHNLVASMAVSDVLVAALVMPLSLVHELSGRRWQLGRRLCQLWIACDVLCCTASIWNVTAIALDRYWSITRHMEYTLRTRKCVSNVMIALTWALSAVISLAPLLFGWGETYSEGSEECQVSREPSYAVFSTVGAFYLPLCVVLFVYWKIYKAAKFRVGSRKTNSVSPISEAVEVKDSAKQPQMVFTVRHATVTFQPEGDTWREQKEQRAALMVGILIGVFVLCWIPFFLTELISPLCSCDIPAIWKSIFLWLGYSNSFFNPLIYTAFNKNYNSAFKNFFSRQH
The target of assay [17] is D(1A) dopamine receptor (Homo sapiens, UniProt P21728). The conditions noted are these: Compound concentration 10.0 uM.
Sequence of D(1A) dopamine receptor (P21728 whole entry): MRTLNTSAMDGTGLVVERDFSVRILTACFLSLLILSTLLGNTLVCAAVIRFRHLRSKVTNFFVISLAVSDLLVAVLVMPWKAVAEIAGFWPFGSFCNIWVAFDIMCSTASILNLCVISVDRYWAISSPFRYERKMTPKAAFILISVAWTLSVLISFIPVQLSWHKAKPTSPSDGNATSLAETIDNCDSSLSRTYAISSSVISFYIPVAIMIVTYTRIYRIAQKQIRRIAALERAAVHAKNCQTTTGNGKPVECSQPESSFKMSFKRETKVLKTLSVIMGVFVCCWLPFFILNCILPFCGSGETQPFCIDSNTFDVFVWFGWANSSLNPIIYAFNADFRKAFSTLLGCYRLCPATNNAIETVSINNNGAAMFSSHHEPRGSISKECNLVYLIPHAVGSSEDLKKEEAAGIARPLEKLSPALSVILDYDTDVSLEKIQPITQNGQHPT
Assay [18] has as its target D(4) dopamine receptor (Homo sapiens) (UniProt P21917). The note with it: Compound concentration 10.0 uM.
Assay [19] deals with Histamine H2 receptor (Homo sapiens) (UniProt P25021). The conditions noted are these: Compound concentration 10.0 uM.
Assay [20] addresses Muscarinic acetylcholine receptor M1 (Homo sapiens) (UniProt P11229). The note with it: Compound concentration 10.0 uM.
The target in assay [21] is Muscarinic acetylcholine receptor M5 (Homo sapiens) (UniProt P08912). The conditions noted are these: Compound concentration 10.0 uM.
Sequence of Muscarinic acetylcholine receptor M5 (Homo sapiens) (P08912 whole entry): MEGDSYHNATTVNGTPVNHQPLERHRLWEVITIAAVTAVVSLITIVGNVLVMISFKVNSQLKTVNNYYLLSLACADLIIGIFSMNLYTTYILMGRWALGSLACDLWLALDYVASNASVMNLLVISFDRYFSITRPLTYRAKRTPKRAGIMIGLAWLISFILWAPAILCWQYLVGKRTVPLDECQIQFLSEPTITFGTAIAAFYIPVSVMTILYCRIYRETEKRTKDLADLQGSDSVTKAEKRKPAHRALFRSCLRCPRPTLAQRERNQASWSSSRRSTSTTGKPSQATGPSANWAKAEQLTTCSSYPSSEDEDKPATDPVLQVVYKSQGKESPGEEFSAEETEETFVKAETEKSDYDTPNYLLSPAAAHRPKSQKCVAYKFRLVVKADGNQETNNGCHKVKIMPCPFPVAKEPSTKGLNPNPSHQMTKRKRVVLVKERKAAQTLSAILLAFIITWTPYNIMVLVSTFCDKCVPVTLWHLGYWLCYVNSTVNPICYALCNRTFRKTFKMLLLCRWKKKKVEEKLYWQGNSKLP
Assay [22] addresses GABA-A receptor; anion channel (Rattus norvegicus) (UniProt O09028+P15431+P18506+P18508+P19969+P20236+P23574+P23576+P28471+P28473+P30191+P62813+P63079+P63138+Q91ZM7+Q9ES14). The note with it: Compound concentration 10.0 uM.
For assay [23], the species on record is Rattus norvegicus. The conditions noted are these: Compound concentration 10.0 uM.

Sequence of Muscarinic acetylcholine receptor M1 (Homo sapiens) (P11229 whole entry): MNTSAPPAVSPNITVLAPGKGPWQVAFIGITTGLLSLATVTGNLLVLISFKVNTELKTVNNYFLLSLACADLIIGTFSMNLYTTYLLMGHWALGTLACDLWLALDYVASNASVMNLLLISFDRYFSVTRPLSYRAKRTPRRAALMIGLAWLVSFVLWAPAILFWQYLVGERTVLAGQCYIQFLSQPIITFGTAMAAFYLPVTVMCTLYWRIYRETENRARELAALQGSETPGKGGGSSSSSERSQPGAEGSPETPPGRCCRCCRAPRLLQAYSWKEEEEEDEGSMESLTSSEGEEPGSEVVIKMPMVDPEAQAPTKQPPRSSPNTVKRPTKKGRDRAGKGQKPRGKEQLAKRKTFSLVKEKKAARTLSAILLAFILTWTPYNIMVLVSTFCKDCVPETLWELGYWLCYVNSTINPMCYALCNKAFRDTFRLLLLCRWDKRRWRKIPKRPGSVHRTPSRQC
Sequence of 5-hydroxytryptamine receptor 1D (P28221 whole entry): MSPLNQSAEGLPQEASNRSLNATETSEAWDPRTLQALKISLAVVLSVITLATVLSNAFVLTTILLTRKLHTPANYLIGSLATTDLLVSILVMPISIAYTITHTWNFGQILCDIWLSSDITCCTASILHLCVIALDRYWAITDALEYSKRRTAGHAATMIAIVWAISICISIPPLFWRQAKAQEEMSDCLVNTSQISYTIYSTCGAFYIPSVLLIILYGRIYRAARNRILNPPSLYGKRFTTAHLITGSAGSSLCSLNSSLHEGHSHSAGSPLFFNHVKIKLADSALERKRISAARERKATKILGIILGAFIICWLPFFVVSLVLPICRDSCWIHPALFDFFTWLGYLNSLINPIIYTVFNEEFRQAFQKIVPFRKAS

On to `CC(=O)Nc1c(F)cc(C(=O)N[C@H]2CC[C@H](O)CC2)cc1O[C@@H](C)c1ccccc1` [GSK046], for which the Ki (commonly a dissociation constant, usually derived from enzyme kinetics or from competition with a known ligand) in assay [1] is 3.44 µM. Moreover, the pIC50 – broadly, the negative decadic logarithm of the IC50, by convention in mol/L – in assay [2] is listed as 5; in assay [3], 4.3. In addition, the Kd (as a rule, the free concentration of one partner at which half of the binding sites on the other are occupied at equilibrium, for simple one-to-one binding) was 1.62 µM (not active) in assay [4]; 32 nM (active) in assay [5]; 35 nM in assay [6]; 33 nM in [7]; 15 nM in [8]; 30 µM in [9]. For the same molecule, the Kd in assay [10], in assay [11] and in assay [12] was 30 µM throughout. Moreover, the fpKi in [13] and in [14] was less than 4.6 each time. Moreover, the pEC50 (commonly the negative decadic logarithm of the EC50, by convention in mol/L) in assay [15] is reported as less than 4. Further, the inhibition (usually the drop in the measured response relative to a control, in per cent) in assay [16] was -8.96%; in [17], 4.11%; in [18] it was 36%; in assay [19], -7.57%; in assay [20], -4.64%; in assay [21], 0.93%. Besides, the inhibition in [22] was 0.61%; in assay [23], 5.68%.
